Where two headings read alike, the source gives them in different places.
Columns and labels:
[1] = target: T1, Avi-KRAS G12D (1-169) GppNHp/RAF1 RBD-3xFLAG (52-151) (Homo sapiens, UniProt P01116, G12D); assay: RAS-effector PPI HTRF disruption assay, Raf1-GppNHp-KRAS G12D; type: biochemical
T1 construct: 100 nM Avi-KRAS G12D (1-169) GppNHp
Procedure: (§1) A protein:protein interaction (PPI) Homogeneous Time Resolved Fluorescence (HTRF) assay was used to determine the effectiveness of compounds of the present disclosure in disrupting KRAS protein and effector (RAF1 or PIK3 CA) binding.
(§2) The HTRF assay used the following reagents and proteins: (i) 375 nM Avi-KRAS G12D/Q25A (1-169) GppNHp/3×FLAG-PI3KCA (157-299); (ii) 100 nM Avi-KRAS G12D (1-169) GppNHp/RAF1 RBD-3×FLAG (52-151); (iii) 50 nM Avi-KRAS G12V (1-169) GppNHp/RAF1 RBD-3×FLAG (52-151); (iv) 50 nM Avi-KRAS WT (1-169) GppNHp/RAF1 RBD-3×FLAG (52-151); and (v) 35 nM Avi-PI3K RBD CA-3×FLAG; Assay Buffer: 50 mM Tris pH 7.5, 100 mM NaCl, 5 mM MgCl2, 0.1% BSA, 0.01% Tween, 1 mM TCEP, 10% DMSO; Bead Buffer: 50 mM Tris pH 7.5, 0.01% Tween 20; Assay volume: 20 μL (384 well plate-low volume format); and Compound titration: 100-0.02 μM, 3× dilution series.
(§3) The HTRF assay employed the following protocol:
(§4) Compounds were dispensed in assay plate (384-well, Grenier Bione #784075) using Echo (model 555) with dose response settings: 200 nL final volume, titration from 100 μM as a 10-point dilution series. Protein mix was prepared in assay buffer, and dispensed on plates, 10 μL per well, then incubated for 1 h at room temperature, with 700 rpm shaking. Reagents mix was prepared and dispensed on plates, 10 μL per well, then incubated for 1 h at room temperature, with 700 rpm shaking.
(§5) Plates were analyzed on an Envision plate reader using the following setting: Excitation 320 nm, Bandwidth […]; Emission 615 nm, Bandwidth […], Gain 100%, Flashes 100, Lag 60 μs. Data was reported as percentage of activity, with DMSO as 100%. Data was plotted and analyzed using Prism 8. The SPR Kd, biochemical Raf1-KRAS G12D/G12V/WT-GppNHP and PI3KCA-KRAS G12D/Q25A-GppNHp disruption assay IC50 of selected compounds described herein are shown in Table 4.

[2] = target: T2, Avi-KRAS G12V (1-169) GppNHp/RAF1 RBD-3xFLAG (52-151) (Homo sapiens, UniProt P01116, G12V); assay: RAS-effector PPI HTRF disruption assay, Raf1-GppNHp-KRAS G12V; type: biochemical
T2 construct: 50 nM Avi-KRAS G12V (1-169) GppNHp
T2 sequence (P01116 1-169 isoform P01116-2 G12V): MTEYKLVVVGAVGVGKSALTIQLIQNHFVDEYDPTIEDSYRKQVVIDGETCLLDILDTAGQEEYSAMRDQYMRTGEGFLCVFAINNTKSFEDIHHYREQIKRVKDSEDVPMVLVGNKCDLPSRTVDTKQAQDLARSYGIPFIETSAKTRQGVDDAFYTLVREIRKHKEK
Procedure: as §1, §2, §3, §4, §5

[3] = target: T3, Avi-KRAS WT (1-169) GppNHp/RAF1 RBD-3xFLAG (52-151) (Homo sapiens, UniProt P01116); assay: RAS-effector PPI HTRF disruption assay, Raf1-GppNHp-KRAS WT; type: biochemical
T3 construct: 50 nM Avi-KRAS WT (1-169) GppNHp
T3 sequence (P01116 1-169 isoform P01116-2): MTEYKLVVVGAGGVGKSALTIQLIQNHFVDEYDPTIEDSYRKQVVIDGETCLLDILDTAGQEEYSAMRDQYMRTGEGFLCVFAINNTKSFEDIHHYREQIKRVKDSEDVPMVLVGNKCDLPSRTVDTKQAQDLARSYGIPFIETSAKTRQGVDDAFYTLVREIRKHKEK
Procedure: as §1, §2, §3, §4, §5

[4] = system: pERK in GP2d cells (KRAS G12D); assay: Cell-based pERK HTRF assay in GP2d cell; conditions: 60 min incubation
Procedure: A pERK assay (Perkin Elmer) was used to determine the effectiveness of compounds in disrupting KRAS G12D protein/effector signaling in cells.
On Day 1, cells (GP2d) were seeded into 96-well plates at 3×10^4 cells/well in 80 μL complete growth media (DMEM, 10% FBS).
On Day 2, cells were treated with compounds at 0.25% DMSO. The source plate was created with compounds diluted in media at 5-fold the final assay concentration. The compounds were run in a 9-point concentration curve starting at 1 μM, with a half-log dilution between concentrations. 20 μL was transferred onto the cell plates (final volume in wells was 100 μL). Plates were harvested after 60 min incubation by aspirating media and adding kit-supplied 1× supplemented lysis buffer to all wells (50 μL per well). Plates were then placed on a plate shaker and incubated at 850 rpm for an additional 30 min.
Antibody mixture solution is prepared by diluting aliquoted d2 and Eu Cryptate antibodies 1:20 in kit supplied detection buffer, mix the diluted antibodies solutions (1:1 v:v). 4 μL of this solution is then added to a 384-well detection plate (Perkin Elmer; 6008230).
Samples were homogenized by pipetting up and down and then transferred (16 μL of cell lysates) from the 96-well cell culture plate to two wells of the HTRF 384-well detection plate containing the antibody solution. Plates were centrifuged (524 g for 1 min) and allowed to incubate between 4 and 24 h at room temperature. Maximum signal is reached after 4 h incubation time and remains stable over a period of 24 hours. Therefore, readings can be made between 4 and 24 h of incubation. Plates were centrifuged again (524 g for Imin), then analyzed on the EnVision plate reader using the following settings: Excitation 320 nm, Bandwidth 75 nm; Emission 615 nm, Bandwidth 85 nm; Gain 100%; Flashes 100; Lag 60 μs.

[5] = target: T4, Avi-KRAS G12D/Q25A (1-169) GppNHp/3xFLAG-PI3KCA (157-299) (Homo sapiens, UniProt P01116, G12D/Q25A); assay: RAS-effector PPI HTRF disruption assay, PI3KCA-GppNHp-KRAS G12D/Q25A; type: biochemical
T4 construct: 375 nM Avi-KRAS G12D/Q25A (1-169) GppNHp
T4 sequence (P01116 1-169 isoform P01116-2 G12D/Q25A): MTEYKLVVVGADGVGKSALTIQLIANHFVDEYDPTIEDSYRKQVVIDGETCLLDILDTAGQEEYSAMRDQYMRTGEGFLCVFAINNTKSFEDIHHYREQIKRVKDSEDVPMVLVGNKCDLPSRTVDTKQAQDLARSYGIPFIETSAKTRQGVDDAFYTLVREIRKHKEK
Procedure: as §1, §2, §3, §4, §5

T1 sequence (P01116 1-169 isoform P01116-2 G12D): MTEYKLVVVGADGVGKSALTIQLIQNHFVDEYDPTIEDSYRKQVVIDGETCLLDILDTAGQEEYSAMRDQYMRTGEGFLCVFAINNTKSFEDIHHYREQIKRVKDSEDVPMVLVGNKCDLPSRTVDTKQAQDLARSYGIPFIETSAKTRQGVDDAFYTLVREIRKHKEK

Structure (SMILES) | IC50 [1] [µM] | IC50 [2] [µM] | IC50 [3] [µM] | IC50 ([4]; GP2d, 1 h) [µM] | IC50 [5] [µM] | IC50 ([4]; read-out: pERK-Gp2D-1 hr) [µM]
COC[C@@H]1C[C@@H](Oc2nc(OC[C@@]34CCCN3C[C@H](F)C4)nc3c(F)c(-c4ccc(F)c5sc(N)c(C#N)c45)c(C(F)(F)F)cc23)CN1 (atropisomer, axis not shown) [Compound 84] | ≤ 0.1 | 0.1 to 1 | 0.1 to 1 | ≤ 0.1 |  | 
C[C@H]1CNCC1Oc1nc(OC[C@@]23CCCN2C[C@H](F)C3)nc2c(F)c(-c3ccc(F)c4sc(N)nc34)c(C(F)(F)F)cc12 (some centres unmarked) [Compound 1] | 1 to 10 |  |  |  |  | 
N#Cc1c(N)sc2c(F)ccc(-c3cc4nc(OC[C@@]56CCCN5C[C@H](F)C6)nc(O[C@@H]5CCNC5)c4nc3C(F)(F)F)c12 [Compound 93, 2-amino-7-fluoro-4-(2-(((2R,7aS)-2-fluorotetrahydro-1H-pyrrolizin-7a(5H)-yl)methoxy)-4-(((R)-pyrrolidin-3-yl)oxy)-6-(trifluoromethyl)pyrido[3,2-d]pyrimidin-7-yl)benzo[b]thiophene-3-carbonitrile] | 1 to 10 | 1 to 10 | 1 to 10 | ≤ 0.1 |  | 
N#Cc1c(N)sc2c(F)ccc(-c3c(C(F)(F)F)cc4c(OC5CC6(CNC6)C5)nc(OC[C@@]56CCCN5C[C@H](F)C6)nc4c3F)c12 [Compound 43] | 0.1 to 1 | 0.1 to 1 | 0.1 to 1 | 0.1 to 1 |  | 
C[C@H]1CNCC1Oc1nc(OC[C@@]23CCCN2C[C@H](F)C3)nc2c(F)c(-c3ccc(F)c4sc(N)nc34)c(C(F)(F)F)cc12 (some centres unmarked) [Compound 2] | 1 to 10 | > 10 | 1 to 10 |  | 1 to 10 | 
COC[C@H]1C[C@@H](Oc2nc(OC[C@@]34CCCN3C[C@H](F)C4)nc3c(F)c(-c4ccc(F)c5sc(N)c(C#N)c45)c(C(F)(F)F)cc23)CN1 (atropisomer, axis not shown) [Compound 81] | > 10 | > 10 | > 10 |  |  | > 1
Nc1nc2c(-c3c(C(F)(F)F)cc4c(O[C@@H]5CCNC5)nc(OC[C@@]56CCCN5C[C@H](F)C6)nc4c3F)ccc(F)c2s1 (atropisomer, axis not shown) [Compound 5] | > 10 | > 10 | > 10 |  | > 10 | 
Nc1nc2c(-c3c(C(F)(F)F)cc4c(O[C@@H]5CCNC5)nc(OCC56CCCN5C[C@H](F)C6)nc4c3F)ccc(F)c2s1 (some centres unmarked) [Compound 4] |  |  |  | ≤ 0.1 |  | 
COC[C@H]1C[C@@H](Oc2nc(OC[C@@]34CCCN3C[C@H](F)C4)nc3c(F)c(-c4ccc(F)c5sc(N)c(C#N)c45)c(C(F)(F)F)cc23)CN1 (atropisomer, axis not shown) [Compound 80] | ≤ 0.1 | 0.1 to 1 | 0.1 to 1 |  |  | ≤ 0.1
C[C@@H]1C[C@@H](Oc2nc(OC[C@@]34CCCN3C[C@H](F)C4)nc3cc(-c4ccc(F)c5sc(N)c(C#N)c45)c(C(F)(F)F)nc23)CN1 [Compound 94] | 1 to 10 | 1 to 10 | 1 to 10 | ≤ 0.1 |  | 
N#Cc1c(N)sc2c(F)ccc(-c3c(C(F)(F)F)cc4c(O[C@@H]5CCC6(CNC6)C5)nc(OC[C@@]56CCCN5C[C@H](F)C6)nc4c3F)c12 (atropisomer, axis not shown) [Compound 85] | ≤ 0.1 | 0.1 to 1 | ≤ 0.1 | 0.1 to 1 |  | 
N#Cc1c(-c2ccc(F)c3sc(N)c(C#N)c23)c(Cl)cc2c(O[C@H]3CNC[C@H]3F)nc(OC[C@@]34CCCN3C[C@H](F)C4)nc12 [Compound 92] | 1 to 10 | > 10 | 1 to 10 | 0.1 to 1 |  | 
N#Cc1c(N)sc2c(F)ccc(-c3c(C(F)(F)F)cc4c(O[C@H]5CCC6(CNC6)C5)nc(OC[C@@]56CCCN5C[C@H](F)C6)nc4c3F)c12 (atropisomer, axis not shown) [Compound 79] | ≤ 0.1 | ≤ 0.1 | ≤ 0.1 |  |  | ≤ 0.1
Nc1nc2c(-c3ccc4c(O[C@H]5CNC[C@H]5F)nc(OC[C@@]56CCCN5C[C@H](F)C6)nc4c3F)ccc(F)c2s1 [Compound 82] | > 10 | > 10 | > 10 | > 1 |  | 
COC[C@H]1NCC[C@H]1Oc1nc(OC[C@@]23CCCN2C[C@H](F)C3)nc2c(F)c(-c3ccc(F)c4sc(N)c(C#N)c34)ccc12 [Compound 91] | > 10 | > 10 | > 10 | 0.1 to 1 |  | 
COC[C@H]1NCC[C@H]1Oc1nc(OC[C@@]23CCCN2C[C@H](F)C3)nc2c(F)c(-c3ccc(F)c4sc(N)c(C#N)c34)c(C(F)(F)F)cc12 [Compound 90] | 0.1 to 1 | 1 to 10 | 0.1 to 1 | ≤ 0.1 |  | 
N#Cc1c(N)sc2c(F)ccc(-c3c(C(F)(F)F)cc4c(O[C@H]5CCC6(CNC6)C5)nc(OC[C@@]56CCCN5C[C@H](F)C6)nc4c3F)c12 (atropisomer, axis not shown) [Compound 78] | 1 to 10 | > 10 | 1 to 10 |  |  | > 1
CN1CCC[C@H]1COc1nc(OC2CNC2)c2cc(Cl)c(-c3ccc(F)c4sc(N)nc34)c(F)c2n1 [Compound 3] | > 10 |  |  |  |  | 
C[C@H]1NCC[C@H]1Oc1nc(OC[C@@]23CCCN2C[C@H](F)C3)nc2c(F)c(-c3ccc(F)c4sc(N)nc34)ccc12 [Compound 83] | > 10 | > 10 | > 10 | > 1 |  | 
C[C@@H]1NCC[C@H]1Oc1nc(OC[C@@]23CCCN2C[C@H](F)C3)nc2c(F)c(-c3ccc(F)c4sc(N)nc34)c(C(F)(F)F)cc12 (atropisomer, axis not shown) [Compound 9] | > 10 | > 10 | > 10 |  | > 10 | 
N#Cc1c(N)sc2c(F)ccc(-c3c(C(F)(F)F)cc4c(OC5CCC6(CC5)CNC6)nc(OC[C@@]56CCCN5C[C@H](F)C6)nc4c3F)c12 [Compound 40] | ≤ 0.1 | 0.1 to 1 | ≤ 0.1 | 0.1 to 1 |  | 
C[C@@H]1C[C@@H](Oc2nc(OC[C@@]34CCCN3C[C@H](F)C4)nc3cc(-c4ccc(F)c5sc(N)c(C#N)c45)c(C(F)(F)F)nc23)CN1 [Compound 95] | > 10 | > 10 | > 10 |  |  | 0.1 to 1
C[C@H]1NCC[C@H]1Oc1nc(OC[C@@]23CCCN2C[C@H](F)C3)nc2cc(-c3ccc(F)c4sc(N)c(C#N)c34)c(C(F)(F)F)nc12 [Compound 96] | 0.1 to 1 | 1 to 10 | 0.1 to 1 | ≤ 0.1 |  | 
